≈ marks a conversion by molar mass, not a printed value.
Legend:
[1] = system: HaCaT (immortalized human keratinocytes); assay: MTT assay, HaCaT normal cells; assay type: cell-based; details: Homo sapiens, HaCaT; MTT, 72 h, normal cells; read-out: IC50 HaCaT (Table 3)
Summary of the method: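 After a 72 h incubation of 1 × 10^4 cells per well with compound, absorbance from MTT reduction was converted to percent of the medium-only control.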

HCT116 cells = assay: Annexin V-FITC/PI apoptosis flow cytometry, HCT116; assay type: cell-based, human
[2] = system: S. epidermidis ATCC 35984; assay: MIC broth microdilution; assay type: cell-based; details: Staphylococcus epidermidis, ATCC35984; 19 h, 35 °C; read-out: MIC S. epidermidis ATCC 35984
Summary of the method: (§1)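 Two-fold serial broth microdilution in Mueller-Hinton II broth, final inoculum adjusted to […]. Compounds dissolved in DMSO, final solvent at most 1%.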

[3] = system: S. epidermidis ATCC 12228; assay: MIC broth microdilution; assay type: cell-based; details: Staphylococcus epidermidis, ATCC12228; 19 h, 35 °C; read-out: MIC S. epidermidis ATCC 12228
Summary of the method: as §1

P. aeruginosa ATCC 15442 = assay: MIC broth microdilution; assay type: cell-based; details: Pseudomonas aeruginosa, ATCC15442; 19 h, 35 °C; read-out: MIC P. aeruginosa ATCC 15442
Summary of the method: as §1

S. aureus ATCC 6538 = assay: MIC broth microdilution; assay type: cell-based; details: Staphylococcus aureus, ATCC6538; 19 h, 35 °C; read-out: MIC S. aureus ATCC 6538
Summary of the method: as §1

S. aureus ATCC 25923 = assay: MIC broth microdilution; assay type: cell-based; details: Staphylococcus aureus, ATCC25923; 19 h, 35 °C; read-out: MIC S. aureus ATCC 25923
Summary of the method: as §1

S. aureus NCTC 4163 = assay: MIC broth microdilution; assay type: cell-based; details: 19 h, 35 °C
Summary of the method: as §1

E. coli ATCC 25922 = assay: MIC broth microdilution; assay type: cell-based; details: Escherichia coli, ATCC25922; 19 h, 35 °C; read-out: MIC E. coli ATCC 25922
Summary of the method: as §1

S. aureus ATCC 29213 = assay: MIC broth microdilution; assay type: cell-based; details: Staphylococcus aureus, ATCC29213; 19 h, 35 °C; read-out: MIC S. aureus ATCC 29213
Summary of the method: as §1

[4] = system: standard bacterial strains; assay: MIC, summary over standard bacterial strains; assay type: cell-based; details: Staphylococcus aureus, ATCC 29213, 25923, and 6538; S. aureus strains other than NCTC 4163; read-out: MIC against the other three strains of S. aureus
Source text: To evaluate the antibacterial effectiveness of chloroquinobenzothiazine derivatives, various bacterial strains from international microbe collections such as the American Type Culture Collection (ATCC) and the National Collection of Type Culture (NCTC) were examined, alongside a panel of clinical rods. This included two Gram-negative organisms, E. coli ATCC 25922 and P. aeruginosa ATCC 15442, and a series of six Gram-positive strains: S. aureus NCTC 4163; S. aureus ATCC 29213, 25923, and 6538; and S. epidermidis ATCC 12228 and 35984. The antimicrobial activity was examined using the Minimal Inhibitory Concentration (MIC) method, following standard CLSI procedures with slight adjustments. The MIC was determined using the two-fold serial broth microdilution method in 96-well microtitration plates containing Mueller-Hinton II broth medium (Becton Dickinson, Franklin Lakes, NJ, USA). The final inoculum for all tested bacteria was adjusted to […] (colony-forming units per milliliter). The stock solution of the tested compounds was prepared in dimethyl sulfoxide (DMSO) and diluted to a maximum of 1% solvent content with a sterile medium.

cancer cell lines = assay: MTT assay, summary over several cell lines; assay type: cell-based, human; details: Homo sapiens; range over two cell lines not given; read-out: IC50 range against two tested cell lines
Experimental: The human cell lines, such as A549 (lung cancer), MDA-MB-231 (breast cancer), MiaPaca-2 (pancreatic cancer), PC3 (metastatic prostate cancer), HCT-116 (colon carcinoma), and HaCaT (immortalized keratinocytes), were sourced from the American Type Culture Collection (ATCC) in Rockville, USA. Culturing conditions varied as follows: HCT116 cells were cultured in MEM (ThermoSci, Waltham, MA, USA), A549, MDA-MB-231, MiaPaca, HaCaT cells in DMEM High Glucose and PC3 cells were cultured in RPMI (Biowest SAS, Nuaillé, France). The growth medium consisted of 10% fetal bovine serum (FBS, Sigma-Aldrich, St. Louis, MO, USA), 20 mM HEPES (Biowest, Nuaillé, France), and antibiotics (100 U/mL of penicillin and 100 μg/mL of streptomycin) from Gibco, Grand Island, NY, USA. […] These compounds were added to 96-well plates containing study cells (1 × 10^4 cells per well) and incubated for 72 h. […] Cell absorbance results were incorporated into the formula for calculating the relative MTT level (%), enabling the assessment of cell viability following exposure to the test compounds. The cell viability percentage represents the MTT reduction in cells treated with the test compounds compared to the control sample, where only the medium was added to the cells.

[5] = representative dot plot, Figure 4C, IC50, 72 h

For `CN1CCCCC1CCN1c2cc(Cl)ccc2Sc2cc3ccccc3nc21` (centres unmarked) [Compound 11, 8-Chloro-6-(2-(1-methylpiperidin-2-yl)ethyl)-quino[3,2-b]benzo[1,4]thiazine], the IC50 [1] was 12.7 ± 1.9 µM, the “cells in late apoptosis/necrosis, HCT116” value (HCT116 cells; compound at IC50, 72 h) was 15.64% and the “HCT-116: Alive” value (HCT116 cells; [5]) was 80.61%. For the same compound, the “HCT-116: Early Apoptotic” value (HCT116 cells; [5]) was 4.12%, the “HCT-116: Necrotic” value (HCT116 cells; [5]) was 9.25% and the “HCT-116: Necrotic/Late Apoptotic” value (HCT116 cells; [5]) was 6.03%. The MIC [2] was 256 µg/mL (≈ 624 µM), the MIC [3] was 256 µg/mL (≈ 624 µM) and the MIC (P. aeruginosa ATCC 15442) was greater than 256 µg/mL. The MIC (S. aureus ATCC 6538) was 128 µg/mL (≈ 312 µM), the MIC (S. aureus ATCC 25923) was 128 µg/mL (≈ 312 µM) and the “MIC S. aureus NCTC 4163” value (S. aureus NCTC 4163) was 8 µg/mL (≈ 19.5 µM). The MIC (S. aureus NCTC 4163; Staphylococcus aureus, NCTC4163, read-out: MIC S. aureus NCTC 4163) was 8 µg/mL (≈ 19.5 µM), the MIC (E. coli ATCC 25922) was greater than 256 µg/mL and the MIC (S. aureus ATCC 29213) was 128 µg/mL (≈ 312 µM). For the same compound, the MIC [4] was greater than 128 µg/mL and the IC50 (cancer cell lines) was 16.1 to 16.7 µM.

Reference: PMC11050599, “Novel Tetracyclic Azaphenothiazines with the Quinoline Ring as New Anticancer and Antibacterial Derivatives of Chlorpromazine” (International Journal of Molecular Sciences, 2024)
